According to US20100227793A1, “Compositions and Methods for Treating Amyotrophic Lateral Sclerosis” (priority 2009, published 2010):
“Also recorded” adds a separate entry of the source.

Legend:
[1] = tested on: fast axonal transport (FAT), anterograde (conventional kinesin-dependent) and retrograde (CDyn-dependent); assay: Vesicle motility assays in isolated squid axoplasm perfused with SOD1 polypeptides; type: cell-based; settings: polypeptides perfused at 5 μM; video-enhanced microscopy over 50 minutes
Method: Although the axonal compartment represents a critical pathogenic target in ALS, axon-specific effects of mutant SOD1 have not been previously addressed. […] However, it was not clear whether those defects resulted from pathogenic events in the neuronal cell body, or from alterations of cellular processes within the axonal compartment (Conforti, et al. (2007) Trends Neurosci. 30:159-66). Therefore, axon-autonomous effects of pathogenic SOD1 on FAT were evaluated using vesicle motility assays in isolated squid axoplasm, which lacks both nuclear and protein synthetic synthesis compartments. This experimental system allows for quantitative analysis of MBOs moving in both anterograde (conventional kinesin-dependent) and retrograde (cytoplasmic dynein-dependent) FAT rates. Further, the lack of plasma membrane in this preparation facilitates an evaluation of the effects of neuropathogenic proteins on FAT.
Highly purified (>95%), recombinant forms of wild-type SOD1 (WT-SOD1) and […] fALS-related SOD1 mutants (G93A-SOD1, G85R-SOD1, H46R and A4V-SOD1) were according to standard methods (Strange, et al. (2003) J. Mol. Biol. 328:877-891). Polypeptides were perfused at 5 μM concentration, and both anterograde (conventional kinesin-dependent) and retrograde (CDyn-dependent) FAT rates analyzed by video-enhanced microscopy over 50 minutes. Perfusion of wild type SOD1 (WT-SOD1) had no effect on either direction of FAT. […] Further, the presence of ATP (5 mM) in the perfusion buffer also ruled out mutant SOD1-induced deficits in ATP production.

[2] = tested on: inhibition of anterograde FAT by G93A-SOD1; assay: Co-perfusion of G93A-SOD1 with kinase inhibitors in squid axoplasm (vesicle motility assay); type: cell-based; settings: for prevention of the inhibition of anterograde FAT induced by G93A-SOD1: co-perfused with recombinant G93A-SOD1 in axoplasm
Method: Increased phosphorylation of neurofilament indicated altered kinase activity with mutant SOD1 and kinases represent a major mechanism for the regulation of conventional kinesin (Donelan, et al. (2002) J. Biol. Chem. 277:24232-42; Morfini, et al. (2006) Nat. Neurosci. 9:907-16; Morfini, et al. (2002) EMBO J. 23:281-93; Morfini, et al. (2001) Dev. Neurosci. 23:364-76). Accordingly, it was determined whether specific protein kinases mediated the effect of mutant SOD1 on anterograde FAT. To this end, axoplasms were co-perfused with recombinant G93A-SOD1 and specific pharmacological or peptide inhibitors of protein kinases. Co-perfusion approaches have facilitated the identification of kinase-dependent pathogenic pathways in other models.
SB203580 is a highly specific pharmacological kinase inhibitor of the mitogen-activated protein kinase (MAPK) p38, and its specificity has been evaluated for more than 100 kinases (Fabian, et al. (2005) Nat. Biotechnol. 23:329-36).
In addition to the docking interactions of MAPKs with MKKs, substrates and regulators there are specific motifs that control the interactions of MKKKs and MKKs. A docking site termed DVD (domain for versatile docking) is found in several MKKs including MKK3 and MKK6, which are involved in p38 regulation. […] Observations of p38 activation in an ALS mouse model prompted the evaluation of the role of MKKs in mediating the inhibitory effect of mutant SOD1 on FAT. To this end, pharmacological inhibitors of MKKKs were co-perfused along with SOD1-G93A in squid axoplasm. The MLK-specific inhibitor CEP11004 (Ganguly, et al. (2004) J. Neurochem. 88(2):469) was ineffective, but co-perfusion of mutant SOD1 with DVD peptide prevented the effects of mutant SOD1 on FAT. The DVD site on MKKs is required for docking and activation by a subset of upstream MKKKs (ASK1, TAK1, etc.), and peptides based on this sequences prevents MAPK activation in cultured cells (Takekawa, et al. (2005) Mol. Cell. 18(3):295).

[3] = tested on: fast axonal transport (FAT); assay: Vesicle motility assays in squid axoplasm perfused with recombinant active p38 isoforms; type: cell-based
Method: Four p38 genes exist in mammals (p38α, p38β, p38γ, and p38δ) (Kyriakis & Avruch (2001) Physiol. Rev. 81:807-69). The p38α and p38β kinases are major p38 isoforms within the nervous system (Lee, et al. (2000) J. Neurosci. Res. 60:623-31), as well as being the most prominent p38 isoforms expressed in motor neurons of the anterior horn spinal cord, the main cell type affected in ALS (Ackerley, et al. (2004) Mol. Cell. Neurosci. 26:354-64). The effect of specific p38 isoforms on FAT was evaluated using vesicle motility assays. The enzymatic activities of recombinant p38 isoforms were first normalized using in vitro kinase assays with ATF-2 as substrate.

[4] = tested on: KHC584 (first 584 amino acid residues of kinesin-1c); assay: In vitro kinase assay of recombinant p38α with KHC584; type: biochemical; settings: sites mapped to Ser175 and Ser176 by LC/MS/MS
Description: Although p38α was implicated in mediating the inhibitory effect of pathogenic SOD1 on FAT, specific p38α targets relevant to these effects needed to be determined (Bendotti, et al. (2005) Neurodegener. Dis. 2:128-34). […] These precedents prompted the determination of whether p38α could directly phosphorylate kinesin-1 subunits of conventional kinesin.
Liquid chromatography tandem mass spectrometry (LC/MS/MS) was used to map KHC584 residues phosphorylated by p38α. To this end, in vitro phosphorylated KHC584 was directly digested with trypsin for LC/MS/MS analysis. Trypsin digest products were fractioned on a C18 HPLC connected to an on-line electrospray ion trap mass spectrometer. Peptide identification was done using SEQUEST algorithm. KHC584 identity was confirmed by identification of multiple kinesin-1C peptides. A peptide corresponding to amino acids 174-188 with unequivocal evidence of phosphorylation by p38α was identified based on spectrum analysis, cross correlation and delta correlation values. Tandem mass spectrometry analysis (MS/MS) by collision-induced dissociation further mapped phosphorylation on both Ser175 and Ser176, consistent with studies showing phosphorylation of Ser176 by the MAPK JNK3. Remarkably, serines 175 and 176 are conserved among squid, mouse and human kinesin-1s (FIG. 4). […]

JNK = assay: Immunoblot of sister axoplasms with activation-specific phosphoantibodies (JNK); type: cell-based, squid; settings: G93A-SOD1 vs WT-SOD1-perfused axoplasms
Method: (§1) To refine this identification, activation of various p38 and other NF kinases were evaluated in “sister” axoplasms. […] Quantitative analysis of immunoblots indicated G93A-SOD1 induced approximately a 4-fold increase in p38 activity, compared to WT-SOD1 perfused of p38 (n=8).

p38 = assay: Immunoblot of sister axoplasms with antibodies against phosphorylated, catalytically active p38; type: cell-based, squid; settings: compared to WT-SOD1-perfused axoplasm; n=8
Method: as §1

ERK = assay: Immunoblot of sister axoplasms with activation-specific phosphoantibodies (ERK); type: cell-based, squid; settings: G93A-SOD1 vs WT-SOD1-perfused axoplasms
Method: as §1

NF220 (neurofilament) = assay: Metabolic labeling of isolated sister axoplasms with 32P-ATP, autoradiography/PHOSPHORIMAGER; type: cell-based, squid; settings: compared to WT-SOD1-perfused sister axon; 50-minute incubation; n=4; p≦0.0284
Method: To determine whether mutant SOD1 could induce activation of axonal kinases, metabolic labeling experiments were performed in isolated axoplasms. These procedures helped evaluate effects of WT-SOD1 and G93-SOD1 polypeptides on the phosphorylation pattern of axonal proteins. Two axons from the same squid (“sister” axons) were dissected and extruded. One axon was perfused with WT-SOD1, whereas the contralateral “sister” axon was perfused with G93A-SOD1 in the presence of P^32-radiolabelled ATP. After a 50-minute incubation, axoplasms were lysed and analyzed by autoradiography. Neurofilament (NF) proteins represent the major phosphoproteins proteins in both squid axoplasm and mammalian axons. Consistent with this, increased phosphorylation of NFs represents a well-documented feature early in the course of ALS.

GSK3 = assay: Immunoblot of sister axoplasms with activation-specific phosphoantibodies (GSK3); type: cell-based, squid; settings: G93A-SOD1 vs WT-SOD1-perfused axoplasms
Method: as §1

[5] = tested on: N2A cells stably transfected with G85R-SOD1; assay: Cell viability (LDH) assay, cells exposed to cyclosporine (CsA); type: cell-based; settings: various concentrations of CsA, presence or absence of inhibitor
Method: (§2) Multiple studies have documented activation of apoptotic mechanism in association with mutant SOD1 expression (Pasinelli, et al. (2004) Neuron 43:19-30). […] To evaluate the role of p38 in this process, cell viability (LDH) and caspase activity assays were performed using N2A cells stably transfected with WT-SOD1 or G85R-SOD1 constructs. […] N2A cells were exposed to various concentrations of CsA in the presence or absence of the p38 inhibitor SB203580.

[6] = tested on: N2A cells stably transfected with G85R-SOD1; assay: Caspase-3 activity assay, cells exposed to cyclosporine (CsA); type: cell-based; settings: various concentrations of CsA, presence or absence of inhibitor
Method: as §2

**Q.** How did the “effect on anterograde FAT rate” value [1] turn out when “WT-SOD1: highly purified recombinant wild-type SOD1” was run?
**A.** no effect

**Q.** And the “effect on retrograde FAT rate” value [1]?
**A.** no effect

**Q.** Which “prevention of the inhibition of anterograde FAT induced by G93A-SOD1” value [2] does the source give for CEP11004 here?
**A.** ineffective

**Q.** p38α: recombinant active p38 isoform α was tested. Which “effect on FAT” value ([3]; perfused at 10 nM) did it give?
**A.** most closely mimicked; also recorded: selective inhibition of anterograde FAT

**Q.** And the “phosphorylation of KHC584” value [4]?
**A.** phosphorylated

**Q.** With “G93A-SOD1: recombinant fALS-related SOD1 mutant G93A” as the molecule, how does the “change in JNK activity” value (JNK) read?
**A.** did not reveal changes

**Q.** What about the “increase in p38 activity (p-p38 immunoblot)” value (p38) of the same molecule?
**A.** ~4 fold

**Q.** What about the “effect on anterograde FAT rate” value [1] of the same molecule?
**A.** selectively inhibited

**Q.** What about the “change in ERK activity” value (ERK) of the same molecule?
**A.** did not reveal changes

**Q.** What about the “increase in overall NF220 phosphorylation” value (NF220 (neurofilament)) of the same molecule?
**A.** 2 fold

**Q.** And the “change in GSK3 activity” value (GSK3)?
**A.** did not reveal changes

**Q.** What does the source list for `C[S+]([O-])c1ccc(-c2nc(-c3ccncc3)c(-c3ccc(F)cc3)[nH]2)cc1` (stereo not shown) [SB203580]?
**A.** attenuation of cell death (LDH) [5]: significant attenuation; anterograde FAT rates compared with WT-SOD1-perfused axoplasm ([2]; co-perfused with G93A-SOD1, FIG. 2): undistinguishable; prevention of the inhibition of anterograde FAT induced by G93A-SOD1 [2]: protective effects; also recorded: completely prevented; attenuation of caspase activation (caspase-3 activity) [6]: significant attenuation

B1: p38δ: recombinant active p38 isoform δ (protein, UniProt O15264 1-365, looked up)
Mitogen-activated protein …: MSLIRKKGFYKQDVNKTAWELPKTYVSPTHVGSGAYGSVCSAIDKRSGEKVAIKKLSRPFQSEIFAKRAYRELLLLKHMQHENVIGLLDVFTPASSLRNFYDFYLVMPFMQTDLQKIMGMEFSEEKIQYLVYQMLKGLKYIHSAGVVHRDLKPGNLAVNEDCELKILDFGLARHADAEMTGYVVTRWYRAPEVILSWMHYNQTVDIWSVGCIMAEMLTGKTLFKGKDYLDQLTQILKVTGVPGTEFVQKLNDKAAKSYIQSLPQTPRKDFTQLFPRASPQAADLLEKMLELDVDKRLTAAQALTHPFFEPFRDPEEETEAQQPFDDSLEHEKLTVDEWKQHIYKEIVNFSPIARKDSRRRSGMKL
**Q.** For B1, which “effect on FAT” value ([3]; perfused at 50 nM) is on record?
**A.** no effect

**Q.** What about the “effect on FAT” value ([3]; perfused at 50 nM, listed as p385) of the same molecule?
**A.** did not affect FAT

B2: p38γ: recombinant active p38 isoform γ (protein, UniProt P53778 1-367, looked up)
Mitogen-activated protein …: MSSPPPARSGFYRQEVTKTAWEVRAVYRDLQPVGSGAYGAVCSAVDGRTGAKVAIKKLYRPFQSELFAKRAYRELRLLKHMRHENVIGLLDVFTPDETLDDFTDFYLVMPFMGTDLGKLMKHEKLGEDRIQFLVYQMLKGLRYIHAAGIIHRDLKPGNLAVNEDCELKILDFGLARQADSEMTGYVVTRWYRAPEVILNWMRYTQTVDIWSVGCIMAEMITGKTLFKGSDHLDQLKEIMKVTGTPPAEFVQRLQSDEAKNYMKGLPELEKKDFASILTNASPLAVNLLEKMLVLDAEQRVTAGEALAHPYFESLHDTEDEPQVQKYDDSFDDVDRTLDEWKRVTYKEVLSFKPPRQLGARVSKETPL
**Q.** For B2, which “effect on FAT” value ([3]; perfused at 100 nM) is on record?
**A.** lesser extent; also recorded: more modest effect

B3: p3813: recombinant active p38 isoform β (misprinted) (protein, UniProt Q15759 1-364, looked up)
Mitogen-activated protein …: MSGPRAGFYRQELNKTVWEVPQRLQGLRPVGSGAYGSVCSAYDARLRQKVAVKKLSRPFQSLIHARRTYRELRLLKHLKHENVIGLLDVFTPATSIEDFSEVYLVTTLMGADLNNIVKCQALSDEHVQFLVYQLLRGLKYIHSAGIIHRDLKPSNVAVNEDCELRILDFGLARQADEEMTGYVATRWYRAPEIMLNWMHYNQTVDIWSVGCIMAELLQGKALFPGSDYIDQLKRIMEVVGTPSPEVLAKISSEHARTYIQSLPPMPQKDLSSIFRGANPLAIDLLGRMLVLDSDQRVSAAEALAHAYFSQYHDPEDEPEAEPYDESVEAKERTLEEWKELTYQEVLSFKPPEPPKPPGSLEIEQ
**Q.** With B3 as the molecule, how does the “effect on FAT” value ([3]; perfused at 50 nM) read?
**A.** inhibited both anterograde and retrograde FAT
